In US6605427B2, “Assay for detection of viral fusion inhibitors” (priority 2000, dated 2003):
Like-named read-outs stand apart in the source and are kept apart here.

Target: HIV-1 gp41 core structure (six-helix bundle) formation (Human immunodeficiency virus type 1 group M subtype B, UniProt P04578)
Experimental: Two days following transfection, intact 293T cells transiently expressing the HIV-1 HXB2 envelope are incubated in the presence of the test compound. At the end of 1 h, 2 μg of soluble CD4 (sCD4) or a cell line expressing CD4 is added. At the end of an additional 1 h, the monoclonal antibody against the six-helix bundle structure is added at a concentration of 10 μg/ml and the mixture is allowed to incubate at 25° C. for 3 hr. Following this incubation the cells are washed 4 times with PBS and lysed with 1 ml lysis buffer (1% Triton X-100, 150 mM NaCl, and 50 mM Tris-Cl pH 7.4). […] Immunoprecipitated complexes are analyzed by 10% SDS-Page gel, transferred to nitrocellulose and immunoblotted with the anti-gp41 monoclonal antibody Chessie 8 (obtained from NIH AIDS Research and Reference Reagent Program) and detected by chemiluminescence and autoradiography.
The ability of the test compound to disrupt these critical conformational changes is assessed by characterizing the formation of the gp41 core structure. […]
The assay is a modified form of an immunoprecipitation (IP) assay and involves incubating the test compound with intact, virus-infected cells expressing the gp120/gp41 envelope complex on their surface. […] In these experiments the ability of a test compound to disrupt gp41 conformational changes was measured by determining its effect of core structure formation.

SMILES: C=C(C)[C@@H]1CC[C@]2(C(=O)O)CC[C@]3(C)[C@H](CC[C@@H]4[C@@]5(C)CC[C@H](OC(=O)CC(C)(C)C(=O)O)C(C)(C)[C@@H]5CC[C@]43C)[C@@H]12 [DSB, dimethylsuccinylbetulinic acid]
- amount of gp41 immunoprecipitated following sCD4 triggering (100 μg/ml DSB (FIG. 8 lane 3)): further reduced to a level nearly identical to that recovered in the absence of CD4 triggering
- amount of gp41 immunoprecipitated following sCD4 triggering (10 Mg/ml DSB (FIG. 8 lane 2) versus no test compound (lane 1)): significantly greater than the amount of gp41 immunoprecipitated in the presence of 10 Mg/ml DSB
